{"source": "ChEMBL document CHEMBL2169878", "about": "(J Med Chem, 2012)", "key": {"[1]": {"system": "Heart", "assay": "Cardiotoxicity against Sprague-Dawley rat Langendorff perfused heart assessed as cycle length time at 1 uM by electrophysiological analysis (reference value: 258.62 8.87 ms)", "type": "toxicity, tissue-based"}, "[2]": {"system": "Plasmodium falciparum", "assay": "Antiplasmodial activity against chloroquine-resistant Plasmodium falciparum W2 infected in human RBC after 72 hrs by parasite lactate dehydrogenase assay", "type": "functional, organism-based", "conditions": "W2, 72 h"}, "[3]": {"system": "Salmonella typhimurium", "assay": "Mutagenicity against Salmonella typhimurium TA100 assessed as revertants at 12 uM incubated for 90 mins followed by drug washout measured after 2 days relative to positive control", "type": "toxicity, organism-based", "conditions": "salmonella enterica subsp. enterica serovar typhimurium"}, "[4]": {"system": "Heart", "assay": "Cardiotoxicity against Sprague-Dawley rat Langendorff perfused heart assessed as atrioventricular conduction time at 10 uM by electrophysiological analysis (reference value: 42.67 2.29 ms)", "type": "toxicity, tissue-based"}, "[5]": {"system": "Heart", "assay": "Cardiotoxicity against Sprague-Dawley rat Langendorff perfused heart assessed as PQ prolongation-induced atrioventricular block at 30 uM by electrophysiological analysis", "type": "toxicity, tissue-based"}, "[6]": {"system": "Plasmodium berghei", "assay": "Antimalarial activity against Plasmodium berghei ANKA expressing GFP infected in mouse assessed as reduction in parasitemia at 50 mg/kg, po administered QD for 3 days measured 24 hrs post-final dosing by flow cytometric analysis", "type": "functional", "parameters": "scale not given: the % may be the effect or the level left"}, "[7]": {"system": "Heart", "assay": "(§1) Cardiotoxicity against Sprague-Dawley rat Langendorff perfused heart assessed as reduction in left ventricular pressure by electrophysiological analysis", "type": "toxicity, tissue-based"}, "[8]": {"assay": "as §1", "type": "toxicity, tissue-based", "conditions": "Sprague-Dawley, Langendorff perfused heart"}, "[9]": {"system": "Heart", "assay": "Cardiotoxicity against Sprague-Dawley rat Langendorff perfused heart assessed as QTc time interval at 10 uM by electrophysiological analysis (reference value: 145.78 10.53 ms)", "type": "toxicity, tissue-based"}, "[10]": {"system": "Plasmodium berghei", "assay": "Antimalarial activity against Plasmodium berghei ANKA expressing GFP infected in mouse assessed as reduction in parasitemia at 100 mg/kg, po administered 24 hrs post-infection measured 48 hrs post-dosing by flow cytometric analysis", "type": "functional", "parameters": "scale not given: the % may be the effect or the level left"}, "[11]": {"system": "Plasmodium berghei", "assay": "Antimalarial activity against Plasmodium berghei ANKA expressing GFP infected in mouse assessed as mean survival days at 100 mg/kg, po administered 24 hrs post-infection (reference value: 6 to 7 days)", "type": "functional"}, "[12]": {"system": "Heart", "assay": "Cardiotoxicity against Sprague-Dawley rat Langendorff perfused heart assessed as heart rate at 1 uM by electrophysiological analysis (reference value: 236.68 7.83 bpm)", "type": "toxicity, tissue-based"}, "[13]": {"system": "Salmonella typhimurium", "assay": "Mutagenicity against Salmonella typhimurium TA100 assessed as revertants at 1.5 uM incubated for 90 mins followed by drug washout measured after 2 days relative to positive control", "type": "toxicity, organism-based", "conditions": "salmonella enterica subsp. enterica serovar typhimurium, 1.5 h"}, "[14]": {"system": "Heart", "assay": "Cardiotoxicity against Sprague-Dawley rat Langendorff perfused heart assessed as QT time interval at 1 uM by electrophysiological analysis (reference value: 73.01 4.52 ms)", "type": "toxicity, tissue-based"}, "[15]": {"system": "Plasmodium berghei", "assay": "Antimalarial activity against Plasmodium berghei ANKA expressing GFP infected in mouse assessed as cure from infection at 50 mg/kg, po administered QD for 3 days measured on day 30", "type": "functional, organism-based", "parameters": "dose 50 mg/kg"}, "[16]": {"system": "Heart", "assay": "Cardiotoxicity against Sprague-Dawley rat Langendorff perfused heart assessed as QTc time interval at 1 uM by electrophysiological analysis (reference value: 145.78 10.53 ms)", "type": "toxicity, tissue-based"}, "[17]": {"system": "Heart", "assay": "Cardiotoxicity against Sprague-Dawley rat Langendorff perfused heart assessed as intraventricular conduction time at 1 uM by electrophysiological analysis (reference value: 13.92 0.42 ms)", "type": "toxicity, tissue-based"}, "[18]": {"system": "Plasmodium falciparum", "assay": "Resistance ratio of IC50 for chloroquine-resistant Plasmodium falciparum K1 to IC50 for chloroquine-sensitive Plasmodium falciparum NF54", "type": "functional"}, "[19]": {"system": "Liver", "assay": "Drug uptake in CD1 albino mouse liver at 50 mg/kg, po at 2 to 6 hrs", "type": "ADME, organism-based", "parameters": "dose 50 mg/kg, route oral", "conditions": "in vivo"}, "[20]": {"system": "Heart", "assay": "Cardiotoxicity against Sprague-Dawley rat Langendorff perfused heart assessed as atrioventricular conduction time at 0.1 uM by electrophysiological analysis (reference value: 42.67 2.29 ms)", "type": "toxicity, tissue-based"}, "[21]": {"system": "Plasmodium berghei", "assay": "Antimalarial activity against Plasmodium berghei ANKA expressing GFP infected in mouse assessed as cure from infection at 30 mg/kg, po administered QD for 3 days measured on day 30", "type": "functional, organism-based", "parameters": "dose 30 mg/kg"}, "[22]": {"system": "Heart", "assay": "Cardiotoxicity against Sprague-Dawley rat Langendorff perfused heart assessed as QT time interval at 0.1 uM by electrophysiological analysis (reference value: 73.01 4.52 ms)", "type": "toxicity, tissue-based"}, "[23]": {"system": "Salmonella typhimurium", "assay": "Mutagenicity against Salmonella typhimurium TA98 assessed as revertants at 24 uM incubated for 90 mins followed by drug washout measured after 2 days relative to positive control", "type": "toxicity, organism-based", "conditions": "salmonella enterica subsp. enterica serovar typhimurium, 1.5 h"}, "[24]": {"biological_target": "Chloroquine resistance transporter (Plasmodium falciparum, UniProt Q9N623)", "assay": "Inhibition of chloroquine-resistant Plasmodium falciparum Dd2 CRT expressed in Xenopus laevis oocyte assessed as inhibition of [3H]chloroquine uptake measured from 1 to 2 hrs"}, "[25]": {"biological_target": "T1, Chloroquine resistance transporter (Plasmodium falciparum) (UniProt Q9N623)", "T1 sequence (whole entry)": "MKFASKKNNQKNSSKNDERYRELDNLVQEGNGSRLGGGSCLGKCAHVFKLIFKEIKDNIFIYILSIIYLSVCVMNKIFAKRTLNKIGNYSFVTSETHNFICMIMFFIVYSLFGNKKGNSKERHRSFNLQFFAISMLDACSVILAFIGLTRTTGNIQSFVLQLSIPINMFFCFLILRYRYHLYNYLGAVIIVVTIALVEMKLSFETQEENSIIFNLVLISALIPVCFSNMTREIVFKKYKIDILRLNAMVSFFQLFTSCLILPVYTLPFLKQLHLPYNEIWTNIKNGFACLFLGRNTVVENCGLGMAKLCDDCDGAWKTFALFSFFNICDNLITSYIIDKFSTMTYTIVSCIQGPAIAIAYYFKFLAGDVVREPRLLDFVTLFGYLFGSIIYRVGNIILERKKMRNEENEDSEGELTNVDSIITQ", "assay": "Inhibition of chloroquine-resistant Plasmodium falciparum Dd2 CRT expressed in Xenopus laevis oocyte assessed as inhibition of [3H]chloroquine uptake at 100 uM measured from 1 to 2 hrs"}, "[26]": {"system": "Plasmodium berghei", "assay": "Antimalarial activity against Plasmodium berghei ANKA expressing GFP infected in mouse assessed as mean survival days at 30 mg/kg, po administered at 6,[…],[…] and 72 hrs post-infection (reference value: 6 to 7 days)", "type": "functional"}, "[27]": {"system": "Salmonella typhimurium", "assay": "Mutagenicity against Salmonella typhimurium TA98 assessed as revertants at 1.5 uM incubated for 90 mins followed by drug washout measured after 2 days relative to positive control", "type": "toxicity, organism-based", "conditions": "salmonella enterica subsp. enterica serovar typhimurium, 1.5 h"}, "[28]": {"system": "Salmonella typhimurium", "assay": "Mutagenicity against Salmonella typhimurium TA98 assessed as revertants at 6 uM incubated for 90 mins followed by drug washout measured after 2 days relative to positive control", "type": "toxicity, organism-based", "conditions": "salmonella enterica subsp. enterica serovar typhimurium, 1.5 h"}, "[29]": {"system": "Heart", "assay": "Cardiotoxicity against Sprague-Dawley rat Langendorff perfused heart assessed as heart rate at 10 uM by electrophysiological analysis (reference value: 236.68 7.83 bpm)", "type": "toxicity, tissue-based"}, "[30]": {"assay": "Cytotoxicity against mouse NIH3T3 cells after 24 hrs by neutral red dye uptake assay", "type": "cell-based", "conditions": "read-out: TC50"}, "[31]": {"system": "Plasmodium berghei", "assay": "Antimalarial activity against Plasmodium berghei ANKA expressing GFP infected in mouse assessed as reduction in parasitemia at 30 mg/kg, po administered QD for 3 days measured 24 hrs post-final dosing by flow cytometric analysis", "type": "functional", "parameters": "scale not given: the % may be the effect or the level left"}, "[32]": {"assay": "Elimination half life in CD1 albino mouse plasma at 50 mg/kg, po measured from 6 to 48 hrs post-dosing", "type": "ADME, organism-based", "parameters": "dose 50 mg/kg, route oral", "conditions": "read-out: beta t1/2 (converted)"}, "[33]": {"assay": "Cytotoxicity against human HepG2 cells after 24 hrs by neutral red dye uptake assay", "type": "cell-based", "conditions": "read-out: TC50"}, "[34]": {"assay": "Ratio of drug uptake in blood to plasma in CD1 albino mouse", "type": "ADME", "conditions": "whole blood and plasma"}}, "note": "Activity calls are given as the source filed them. The rule behind the calls is not given here."}
{"smiles": "Clc1ccc(C(Nc2ccnc3cc(Cl)ccc23)c2ccc(CN3CCNCC3)cc2)cc1", "note": "(racemic)", "values": [{"measurement": "Time", "setting": "[1]", "value": 260.13, "unit": "ms"}, {"measurement": "IC50", "setting": "[2]", "value": 58, "unit": "nM"}, {"measurement": "Activity", "setting": "[3]", "value": 17, "unit": "%"}, {"measurement": "Time", "setting": "[4]", "value": 50.56, "unit": "ms"}, {"measurement": "Activity", "setting": "[5]", "value": "Toxic"}, {"measurement": "Activity", "setting": "[6]", "value": 99.8, "unit": "%"}, {"measurement": "Activity", "setting": "[7]", "value": "Dose-dependent effect"}, {"measurement": "IC50", "setting": "[8]", "value": 9500, "unit": "nM"}, {"measurement": "Time", "setting": "[9]", "value": 177.33, "unit": "ms"}, {"measurement": "Activity", "setting": "[10]", "value": 99.5, "unit": "%"}, {"measurement": "MSD", "setting": "[11]", "value": 28.8, "unit": "days"}, {"measurement": "Activity", "setting": "[12]", "value": 233.54, "unit": "bpm"}, {"measurement": "Activity", "setting": "[13]", "value": 19, "unit": "%"}, {"measurement": "Time", "setting": "[14]", "value": 76.5, "unit": "ms"}, {"measurement": "Activity", "setting": "[15]", "value": "Active"}, {"measurement": "Time", "setting": "[16]", "value": 151.17, "unit": "ms"}, {"measurement": "Time", "setting": "[17]", "value": 14.18, "unit": "ms"}, {"measurement": "Ratio IC50", "setting": "[18]", "value": 1.3}, {"measurement": "Drug uptake", "setting": "[19]", "value": "Active"}, {"measurement": "Time", "setting": "[20]", "value": 42.53, "unit": "ms"}, {"measurement": "Activity", "setting": "[21]", "value": "inactive"}, {"measurement": "Time", "setting": "[22]", "value": 74, "unit": "ms"}, {"measurement": "Activity", "setting": "[23]", "value": 4, "unit": "%"}, {"measurement": "IC50", "setting": "[24]", "value": 10300, "unit": "nM"}, {"measurement": "inhibition", "setting": "[25]", "value": "Active"}, {"measurement": "MSD", "setting": "[26]", "value": 30, "unit": "days"}, {"measurement": "Activity", "setting": "[27]", "value": 2, "unit": "%"}, {"measurement": "Activity", "setting": "[28]", "value": 6, "unit": "%"}, {"measurement": "Activity", "setting": "[29]", "value": 216.05, "unit": "bpm"}, {"measurement": "CC50 at 24 h", "setting": "[30]", "value": 1800, "unit": "nM"}, {"measurement": "Activity", "setting": "[31]", "value": 99.8, "unit": "%"}, {"measurement": "half-life", "setting": "[32]", "value": 22, "unit": "h"}, {"measurement": "CC50 at 24 h", "setting": "[33]", "value": 1800, "unit": "nM"}, {"measurement": "blood plasma ratio", "setting": "[34]", "value": 1.9}]}
